Reference: US8222414B2, “Indole compounds as an inhibitor of cellular necrosis” (LG Life Sciences Ltd., priority 2007, dated 2012)
pEC50: −log10 of the molar value.

Assays:
Format in all cases: cell-based
[1] = test system: H9C2 cells; assay: Protective effect when tBHP was treated on cardiac cells (SRB method); settings: Rattus norvegicus, tBHP 400 uM, 2 h, H9C2 cardiomyocytes
Experimental: In order to determine the protective effect on pancreatic cells, Linm5F cells, a sort of the beta cells, were distributed into the 96-well plate in the amount of 2×10^4 cells/well, and incubated for 24 h. The Example compounds were serially diluted by 3-fold to the final concentration of 30, 10, 3, 1, 0.3, 0.1 uM, by which each well was treated for 1 h. Cells were treated with tBHP at the final concentration of 400 uM, and further incubated for 5 h. Protective effects were determined using SRB (Sulforhodamine B Protein) method in which total amount of cellular protein is stained. Briefly, cells were incubated for 5 h, 50 uL of 4% formaldehyde solution was added to each well to fix the cells, and stored for about 30 min at room temperature. After discarding the media, each well was washed with distilled water 2-3 times, and the plate was dried in an oven at 50°. 50 uL of SRB solution was added to each well, and placed for about 30 min at room temperature. After removing SRB solution, the plate was washed with 1% acetic acid solution 2-3 times. […]
In order to assess the protective effect on cardiac cells, H9C2 cells were distributed in the amount of 1.5×10^4 cells/well, and incubated for 24 h. […] Protective effect of each compound was determined using the same SRB method as in Linm5F of above mentioned 2).

[2] = test system: primary hepatocytes isolated from rats; assay: Cell protective effects against doxorubicin in hepatocytes (WST-1 cell viability); settings: primary rat hepatocytes pretreated with compound for 30 min, then doxorubicin, viability by WST-1 after 24-48 h
Summary of the method: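 Rat primary hepatocytes from two-step collagenase perfusion were pretreated for 30 min with compound: 5-step 2- or 3-fold series from 30, 10 or 1 µM, 0.2% DMSO. Doxorubicin or another hepatotoxicant (e.g., CCl4, acetaminophen, H2O2) was then added. Viability after 24–48 h was read by WST-1 (A440), and EC50 was taken as half-maximal protection.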

[3] = test system: primary hepatocytes isolated from rats; assay: Hepatocyte protective effect against substances deriving hepatocyte toxicity (WST-1 cell viability); settings: for pEC50: Rattus norvegicus, Hepatocyte, viability after 24-48 h, WST-1; for viability: primary rat hepatocytes
Experimental: Various endogenous/exogenous attacks on the cells trigger the mechanisms of cell death which is broadly classified into two types, i.e. apoptosis or necrosis. Using these cell death mechanisms, in the present experimental example, primacy hepatocytes isolated from rats were treated with drugs which were clinically shown to result in serious side-effects of hepatocyte toxicity or various chemicals which derive cell death, and the compounds synthesized in the Examples were estimated for their hepatocyte protective effects, after 24-48 h. The substances used to derive hepatocyte death include CCl4, ActD, H2O2, doxorubicin, anti-Fas Ab/Actinomycin D, acetaminophen, EtOH, CdCl2, palmitate, stearate, cyclophosphamide, terfenadine, diclofenac, simvastatin, and adefovir. Primary hepatocytes were isolated using the method of Seglen P O (Experimental Cell Research 74 (1972) pp 450-454). Briefly, hepatocytes were isolated according to the two-step collagenase perfusion method, and dead cells were removed by low speed (500 rpm) centrifugation for 10 min using percoll gradient (Kreamer B L etc, In Vitro Cellular & Developmental Biology 22 (1986) pp 201-211). During this step, the viability of cells was maintained 90% or above. The cells were suspended in HepatoZYME media (Gibco BRL), and the number of cells was counted. 1.5×10^4 cells in 100 μl were placed into the collagen-coated 96-well plate (BD biocoat), and adhered on the bottom for 3-4 h.
In order to assess the hepatocyte protective effect, above adhered cells were pretreated with the Example compounds for 30 min. […] 30 min after the treatment by compounds, cells were treated by the substances deriving hepatocyte death or hepatotoxic drugs at the concentrations indicated in Table 1. After 24-48 h, the viability of cells was determined to estimate the hepatocyte protective effects. The viability of cells was determined using WST-1 (MK-400, […]) method by the absorbance at 440 nm. Hepatocyte protective effects of the Example compounds were represented by “EC50” which was calculated from measured values. “EC50” herein means the concentration of the compound at which 50% of maximum protective effect is observed in the experiment.

[4] = test system: SK-N-MC cells; assay: Protective effect when tBHP was treated on brain cells (LDH assay); settings: Homo sapiens, tBHP 400 uM, 6 h
Experimental: In order to assess the protective effect on brain cells, 2×10^4 brain cells were distributed into the 96-well plate using DMEM media (Gibco, 10% FBS), and incubated for 24 h. The Example compounds were serially diluted by 3-fold to the final concentration of 30, 10, 3, 1, 0.3, 0.1 uM, by which each well was treated for 1 h. Cells were treated with tBHP at the final concentration of 400 uM, and incubated for 6 h. 50 uL of media was taken from each well to proceed with LDH assay (Promega). In LDH assay, 50 uL of media was mixed with 50 uL of assay solution. After the reaction for 30 min at room temperature, absorbance was measured at 490 nm using SpectraMax (Molecular Device).

[5] = test system: Linm5F cells; assay: Protective effect when tBHP was treated on pancreatic cells (SRB method); settings: Pancreatic beta cell, tBHP 400 uM, 5 h
Experimental: In order to determine the protective effect on pancreatic cells, Linm5F cells, a sort of the beta cells, were distributed into the 96-well plate in the amount of 2×10^4 cells/well, and incubated for 24 h. The Example compounds were serially diluted by 3-fold to the final concentration of 30, 10, 3, 1, 0.3, 0.1 uM, by which each well was treated for 1 h. Cells were treated with tBHP at the final concentration of 400 uM, and further incubated for 5 h. Protective effects were determined using SRB (Sulforhodamine B Protein) method in which total amount of cellular protein is stained. Briefly, cells were incubated for 5 h, 50 uL of 4% formaldehyde solution was added to each well to fix the cells, and stored for about 30 min at room temperature. After discarding the media, each well was washed with distilled water 2-3 times, and the plate was dried in an oven at 50°. 50 uL of SRB solution was added to each well, and placed for about 30 min at room temperature. After removing SRB solution, the plate was washed with 1% acetic acid solution 2-3 times. After drying the plate in an oven at 50°, 100 uL of 10 mM Tris was added to elute SRB which was staining the intracellular protein.

Structure (SMILES) | pEC50 [1] | pEC50 ([2]; Hepatocyte) | pEC50 [5] | other results
O=C(O)C[C@@H]1CSC(c2cc3cc(Oc4ccccc4)cc(NC4CCCC4)c3[nH]2)=N1 [Example 85, [(R)-2-(5-phenoxy-7-cyclopentylamino-1H-indol-2-yl)-4,5-dihydro-thiazol-4-yl]-acetic acid] | 6.15 | 6.40 |  | 
O=C(O)C[C@@H]1CSC(c2cc3cc(Cl)cc(NC4CCCC4)c3[nH]2)=N1 [Example 4, [(R)-2-(5-chloro-7-cyclopentylamino-1H-indol-2-yl)-4,5-dihydro-thiazol-4-yl]-acetic acid] |  | 6.52 |  | pEC50 ([3]; simvastatin 16 μM): > 5.00; pEC50 ([3]; terfenadine 10 μM): 6.40; viability ([3]; adefovir 100 μM, compound at 3-30 uM): 50%; viability ([3]; diclofenac 350 μM, compound at 3-100 uM): 40%; pEC50 [4]: ≥ 7.00
O=C(O)C[C@H]1CSC(c2cc3cccc(NC4CCCC4)c3[nH]2)=N1 [Example 14, [(S)-2-(7-cyclopentylamino-1H-indol-2-yl)-4,5-dihydro-thiazol-4-yl]-acetic acid] |  | 6.72 | 6.82 | 
Cc1cc(NCC2CCOCC2)c2[nH]c(C3=N[C@@H](CC(=O)O)CS3)cc2c1 [Example 22, [(S)-2-(5-methyl-7-(tetrahydropyran-4-yl)methylamino-1H-indol-2-yl)-4,5-dihydro-thiazol-4-yl]-acetic acid] | 6.77 | 6.60 | 6.70 | 
O=C(O)C[C@H]1CSC(c2cc3cccc(NC4CCOCC4)c3[nH]2)=N1 [Example 11, [(S)-2-(7-(tetrahydropyran-4-yl)amino-1H-indol-2-yl)-4,5-dihydro-thiazol-4-yl]-acetic acid] |  | 5.55 |  | 
Cc1cc(NC2CCOCC2)c2[nH]c(C3=N[C@@H](CCO)CS3)cc2c1 [Example 24, [(S)-2-(5-methyl-7-(tetrahydropyran-4-yl)amino-1H-indol-2-yl)-4,5-dihydro-thiazol-4-yl]-ethanol] |  |  |  | pEC50 [2]: 6.89
